Experimental findings from patent US20120258974A1, “USE OF A2B ADENOSINE RECEPTOR ANTAGONISTS FOR TREATING HEART FAILURE AND ARRHYTHMIA IN POST-MYOCARDIAL INFARCTION PATIENTS” (GILEAD SCIENCES, INC., priority 2011, published 2012) are described below.

“Also recorded” adds a separate entry of the source.

Data set [1] has as its system human cardiac myocytes (HCM). As to the kind of experiment: NECA-induced IL-6 release from human cardiac myocytes (Example 7). Format: cell-based. To be noted: for effect of NECA on HCM (IL-6 release): NECA in combination with antagonist. How it is done: This example uses human cardiac myocytes to test two other A2B adenosine receptor antagonists on their effect on NECA-induced IL-6 release.
Human cardiac myocytes (HCM) were treated with NECA alone, or in combination with Compound A, Compound B (N-[5-(1-cyclopropyl-2,6-dioxo-3-propyl-2,3,6,7-tetrahydro-1H-purin-8-yl)-pyridin-2-yl]-N-ethyl-nicotinamide, also known as ATL-801) or Compound C (2-(4-benzyloxy-phenyl)-N-[5-(2,6-dioxo-1,3-dipropyl-2,3,6,7-tetrahydro-1H-purin-8-yl)-1-methyl-1H-pyrazol-3-yl]-acetamide).

Data set [2] concerns rats with MI (25 minutes coronary occlusion followed by reperfusion). As to the kind of experiment: Rat model of post-MI remodeling: serial echocardiograms (Example 6). Format: in vivo. The procedure:
The effects of Compound A in a rat model of post-MI remodeling and VT were determined. MI was caused by 25 minutes occlusion at the left anterior descending coronary ligation followed by reperfusion. One week later, rats were administered either vehicle or Compound A (100 mg/kg) once daily by oral gavage. Serial echocardiograms (ECHOs) to measure LV ejection fraction (LVEF), stroke volume and LV end systolic volume (LVESV) were obtained at baseline, 1 week and 5 week post-MI. Electrophysiological studies, optical mapping, histology and biomarker analysis were conducted at 5 week post-MI.

Data set [3] relates to primary human cardiac fibroblasts (HCF). The data set can be described thus: NECA-induced release of IL-6, collagen, ST-2, PAPPA and expression of fibrotic markers in human cardiac fibroblasts (Example 2). Format: cell-based. How it is done: Real-time RT-PCR was performed as published using Stratagene PCR equipment (La Jolla, Calif.). Zhong H., et al., “A2B adenosine receptors increase cytokine release by bronchial smooth muscle cells,” American Journal of Respiratory Cell and Molecular Biology, 30(1): 118-125 (2004).
Expression of AdoR, α-smooth muscle actin and α-1 pro-collagen was determined using real-time RT-PCR. The concentration of IL-6, soluble ST-2 and PAPPA (Pregnancy-associated plasma protein A) in the cell supernatants were measured using ELISA, and the concentration of soluble collagen were determined using Sircol™ collagen assay.

Turning to `CCCn1c(=O)n(C2CC2)c(=O)c2[nH]c(-c3ccc(N(CC)C(=O)c4cccnc4)nc3)nc21` [Compound B, N-[5-(1-cyclopropyl-2,6-dioxo-3-propyl-2,3,6,7-tetrahydro-1H-purin-8-yl)-pyridin-2-yl]-N-ethyl-nicotinamide], the “effect of NECA on HCM (IL-6 release)” value in data set [1] is listed as “completely abolished”.
Take `CCCn1c(=O)c2[nH]c(-c3cc(NC(=O)Cc4ccc(OCc5ccccc5)cc4)nn3C)nc2n(CCC)c1=O` [Compound C]: in data set [1], the “effect of NECA on HCM (IL-6 release)” value is recorded as “completely abolished”.
Regarding `Cc1ccc(=O)n(-c2ccccc2)c1` [pirfenidone, reference compound], the “reduction of LVEF” value in data set [2] (post-MI, Example 6 and FIG. 12B) is on record as “only slowed”. In data set [2] (rat post-MI, comparison with Compound A, FIG. 12B), the “LVESV (so in the source): increase and further reduction” value is recorded as “did not increase; also recorded: only slightly inhibited”.
As for N-ethylcarboxamide adenosine [NECA], the “soluble collagen concentration after stimulation” value in data set [3] (NECA 10 μM, basal 3.4±0.2) stood at 6.0 ± 0.4 µg/mL. For the same molecule, the “production of collagen, fold induction” value in data set [3] (NECA 10 μM, p<0.05) worked out at 1.8±0.1 fold. Further, in data set [3] (NECA 10 μM, real-time RT-PCR), the “expression of α-1 pro-collagen” value is “increased” and the “expression of α-smooth muscle actin” value is “increased”. Moreover, the “PAPPA concentration after stimulation” value in data set [3] (basal 1.4±0.5) was 6.2 ± 0.8 ng/mL. Besides, the “soluble ST-2 concentration after stimulation” value in data set [3] (basal 1.5±0.1) was determined as 2.6 ± 0.1 ng/mL. The “release of IL-6, maximal increase over the basal level” value in data set [3] (concentration-dependent) is 2.4±0.1 fold. For the same molecule, in data set [3] (p<0.05), the “release of PAPPA, fold induction” value is recorded as 4.4±0.6 fold and the “release of soluble ST-2, fold induction” value amounted to 1.7±0.1 fold. Further, the “IL-6 release from human cardiac myocytes” value in data set [1] (NECA alone) is “significantly increased”.
